The target of one series is T1, Aβ1-42 (Homo sapiens, UniProt P05067).
T1 construct: purchased Genecust, Boynes, France
The series can be described thus: Inhibition of Aβ1-42 self-aggregation, thioflavin T fluorescence. It is filed as biochemical. The following applies: Cinhibitor = 20 µM, Aβ1-42 40 µM, 37 °C, 24 h, read-out: Aβ42 Self-Aggreg. Inhib. On the procedure:
The Aβ peptide (Genecust, Boynes, France) was treated with 1,1,1,3,3,3-hexafluoropropan-2-ol (HFIP, Aldrich, Steinheim, Germany) and dissolved in a CH3CN/Na2CO3 (300 µM)/NaOH (250 µM) ([…], v/v/v) mixture in order to have a stable stock solution of Aβ1-42 with concentration 500 µM.
Solutions of the assayed compounds (0.5 mg/mL) were firstly prepared in 60% (v/v) DMSO/MeOH medium and then diluted in phosphate buffer (0.215 M, pH 8.0) to a concentration of 120 µM. The Aβ1-42 aggregation inhibition assays were performed according to a reported method based on the fluorescence emission of thioflavin T (ThT, Aldrich Steinheim, Germany). Therefore, Aβ1-42 (40 µM) was incubated at 37 °C for 24 h in phosphate buffer and in the presence or absence of each ligand (20 µM). Then, the samples were added to a 96-well plate with 180 µL of 5 µM ThT in 50 mM glycine-NaOH (pH 8.5) buffer. Blank samples were identically prepared for each concentration but in the absence of the peptide. The ThT fluorescence was measured at 445 nm (excitation) and 485 nm (emission). The percent of aggregation inhibition was calculated by the following equation:I% = 100 − (IFi/IF0 × 100), in which IFi and IF0 are the fluorescence intensities, in the presence and the absence of the tested compound, subtracted from the fluorescence intensities due to the respective blanks. The reported values were obtained as the mean ± SEM of two different experiments performed in duplicate.
The inhibitory capacity of the RIV-IND hybrids towards Aβ42 self-aggregation was evaluated in vitro by molecular fluorescence spectroscopy through the thioflavin T (ThT) method. In fact, since there is an increase in the absorbance and emission of ThT when it binds to amyloid fibrils, it is possible to determine the percent of Aβ42 self-aggregation (see Table 1). The assays were performed in the presence of 20 µM of inhibitor to overcome the solubility limitations of some compounds in the phosphate buffer aqueous medium.

Series [1] relates to SH-SY5Y cells. The series can be described thus: Cell viability dose-response screening, MTT. It is filed as cell-based, human. As for the experimental part:
(§1) Cell viability, following treatment with the compounds, was determined using the colorimetric MTT (3-(4,5-dimethylthiazol-2-yl)-2,5-diphenyltetrazolium bromide) assay. The tested compounds (5a1-3, 5b1-3, 5c1-3) were dissolved in DMSO to produce stock solutions of 25 mM and stored at −20 °C. A concentration screening was performed for 0.5 µM to 20 µM final concentrations to choose the highest nontoxic concentration. SH-SY5Y human neuroblastoma cell line (ATCC-CRL-2266) was cultured in Dulbecco’s modified Eagle’s medium (DMEM) (Gibco-Invitrogen, Life Technologies Ltd., Waltham, MA, USA) with heat-inactivated fetal calf serum (10%), penicillin (50 U/mL) and streptomycin (50 µg/mL) at 37 °C with 5% CO2. Cells were plated at 0.15 × 10^6 cells/mL one day prior to the start of the experiment. The cells were then incubated with the appropriate concentration of the compounds for 24 h. After the incubation period, the cells were washed once with PBS and incubated with 200 µL MTT (0.5 mg/mL) for 2 h at 37 °C with 5% CO2. During this period, cellular dehydrogenase successfully metabolized MTT into formazan, which was then solubilized using 200 µL of 0.04 M HCl/isopropanol. Absorbance was measured at 570 nm.
The new RIV-IND hybrids were tested to determine their protective role in the toxicity induced by either Aβ1-42 peptides or iron/ascorbate. SH-SY5Y cells were incubated with a set of concentrations of each of the compounds and a dose–response curve was constructed to select the highest nontoxic concentration.
Figure 3 Dose–response screening of RIV-IND compounds 5a1-3, 5b1-3 and 5c1-3 measured by MTT reduction ability on SH-SY5Y cells treated with different concentrations of the compounds for 24 h. Results are expressed relatively to untreated cells, with the mean ± standard error of the mean (SEM) derived from three independent experiments. * p < 0.05; ** p < 0.01; *** p < 0.001 compared to untreated cells. (The dot line indicates 100% cellular viability).

For series [2], the system named is SH-SY5Y cells. The series can be described thus: Neuroprotection against iron/ascorbate-induced toxicity, MTT. It is filed as cell-based, human. Particulars: ferrous sulfate 5 mM and L-ascorbic acid 2.5 mM, 24 h, optimized concentration of each compound. As for the experimental part:
as §1
To test whether the compounds have a protective effect against toxicity induced by Aβ1-42 or iron/ascorbate, the cells were pre-incubated for 1 h with each compound, followed by the addition of Aβ1-42 or iron/ascorbate and incubation for an additional 24 h. Aβ1-42 (Bachem, Torrance, CA, USA) was prepared in sterile water to produce a stock solution of 443 µM and added to the cells at a final concentration of 1 µM. […] All data are expressed as mean ± SEM of at least three independent experiments performed in duplicate. […]
Figure 5 Neuroprotective effect of RIV-IND compounds against cellular toxicity induced by iron/ascorbate (Fe/Asc) measured by MTT reduction ability on SH-SY5Y cells pretreated with iron/ascorbate for one hour, followed by a 24 h incubation with the optimized concentration of each compound. […]

T1 sequence (P05067 672-713 limits assumed): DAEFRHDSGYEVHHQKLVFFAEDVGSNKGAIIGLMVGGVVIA

Turning to `CCN(C)C(=O)Oc1cccc(CNC(=O)c2cc3ccccc3[nH]2)c1` [Compound 5b1, 3-((1H-indole-2-carboxamido)methyl)phenyl ethylmethylcarbamate], the inhibition at 20 µM on Aβ1-42 stood at 19.9%. Further, the highest nontoxic concentration with SH-SY5Y cells [1] (when used with Aβ1-42) is given as 2.5 µM; with SH-SY5Y cells [1] (when used with iron/ascorbate), 1 µM. Moreover, the “neuroprotective effect against toxicity induced by iron/ascorbate” value with SH-SY5Y cells [2] is “also present a neuroprotective effect”.
Turning to `CCN(C)C(=O)Oc1cccc(NC(=O)c2cc3cccc(O)c3[nH]2)c1` [Compound 5a3, 3-(7-Hydroxy-1H-indole-2-carboxamido)phenyl ethyl(methyl)carbamate], on Aβ1-42, the inhibition at 20 µM is 50.3%. This compound returned a highest nontoxic concentration in the series on SH-SY5Y cells [1] (24 h, screening 0.5 µM to 20 µM) of 2.5 µM. The “neuroprotective effect against toxicity induced by iron/ascorbate” value with SH-SY5Y cells [2] is recorded as “also present a neuroprotective effect”.
